Values quoted from earlier work, collected in patent US12391711B2 (priority 2020, dated 2025).

Settings: human, Pain Res. Manag., 2005, 10: 15A-22A

CCCCCc1cc(O)c2c(c1)OC(C)(C)[C@@H]1CCC(C)=C[C@@H]21 [THC, (6aR,10aR)-6,6,9-trimethyl-3-pentyl-6a,7,8,10a-tetrahydro-6H-benzo[c]chromen-1-ol]
oral bioavailability: 4%-12%
